Literature values as cited in patent US6656915B1, “Inhibiting T-cell proliferation” (Biocryst Pharmaceuticals, Inc., priority 1999, dated 2003).
Like-named read-outs stand apart in the source and are kept apart here.

Columns and labels:
[1] = test system: peripheral blood lymphocytes; details: rats
[2] = test system: peripheral blood lymphocytes; details: dogs
[3] = upon being administered to a host, alone
[4] = test system: human T-cells (CCRF-CEM and Molt-4 cells); details: given with 2′-deoxyguanosine; CCRF-CEM and Molt-4 cells in cultures
[5] = test system: T-cells; details: rats; given with 2′-deoxyguanosine
[6] = test system: T-cells; details: humans; PNP inhibitor without exogenous 2′-deoxyguanosine
[7] = biological target: PNP (Homo sapiens, UniProt P00491); details: humans; indicating effective inhibition of PNP
Sequence of PNP (P00491 whole entry): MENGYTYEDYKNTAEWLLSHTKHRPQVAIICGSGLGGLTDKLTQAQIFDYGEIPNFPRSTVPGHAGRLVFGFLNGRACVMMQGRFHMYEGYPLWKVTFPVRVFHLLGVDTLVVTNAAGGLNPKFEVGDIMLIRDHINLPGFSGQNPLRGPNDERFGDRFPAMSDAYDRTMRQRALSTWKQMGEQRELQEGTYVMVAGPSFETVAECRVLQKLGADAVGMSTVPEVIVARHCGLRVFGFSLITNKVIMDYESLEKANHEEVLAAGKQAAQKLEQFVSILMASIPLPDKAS

[8] = 2′-deoxyguanosine alone, without PNP inhibition

SMILES: Nc1nc2c(ncn2[C@H]2C[C@H](O)[C@@H](CO)O2)c(=O)[nH]1 [2′-deoxyguanosine]
- cell counts (lymphopenia) [1, 8]: did not significantly decrease cell counts
- cell counts (lymphopenia) [2, 8]: did not significantly decrease cell counts
- degradation of exogenous 2′-deoxyguanosine [3]: rapidly degrades

SMILES: Nc1nc2nc(N)[nH]c2c(=O)[nH]1 [8-Aminoguanine]
- proliferation of human T-cells [4]: inhibits the proliferation

SMILES: Nc1nc2c(nc(N)n2[C@@H]2O[C@H](CO)[C@@H](O)[C@H]2O)c(=O)[nH]1 [8-Aminoguanosine, reference compound]
- peripheral blood lymphocytes ([1]; given with 2′-deoxyguanosine): profound fall
- peripheral blood lymphocytes ([2]; given with 2′-deoxyguanosine): profound fall
- levels of 2′-deoxyguanosine triphosphate (dGTP) in T-cells [5]: increased levels

SMILES: Nc1nc2c(Cc3cccnc3)c[nH]c2c(=O)[nH]1 [9-(3-Pyridylmethyl)-9-deazaguanine]
- T-cell counts [6]: did not reduce T-cell counts
- plasma inosine levels [7]: increases plasma inosine levels
